Patent US10189809B2, “SGC stimulators” (Ironwood Pharmaceuticals, Inc., priority 2010, dated 2019)

Key:
[1] = target: T1, soluble guanylate cyclase (sGC) (Homo sapiens (Human), UniProt Q02108+Q02153); experiment: sGC-HEK-cGMP assay run in the absence of SNP (HEK WC assay); type: cell-based; settings: no SNP, increase in the sGC receptor activity; for HEK WC Assay (fold increase at 10 μM): compound at 10 μM; for HEK WC Assay (fold increase at 30 μM): compound at 30 μM
Outline: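 HEK293 cells with endogenous sGC, preincubated 15 min at 37° C with 0.5 mM IBMX, then exposed to test compound 10 min at 37° C without SNP. Cells lysed in 0.1 M HCl; cGMP quantified by LC/MS against a standard curve. EC50 from concentration-response curves.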

[2] = target: T1, soluble guanylate cyclase (sGC); experiment: sGC-HEK-cGMP assay run with SNP incubation (HEK WC assay); type: cell-based; settings: for Emax at 10 µM: read-out: HEK WC Assay (% Emax at 10 uM/with 10 uM SNP); for Emax at 30 µM: read-out: HEK WC Assay (% Emax at 30 uM/with 10 uM SNP)
Outline: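 HEK293 cells with endogenous sGC were pretreated with 0.5 mM IBMX for 15 min at 37 °C, then exposed to test compound plus sodium nitroprusside for 10 min at 37 °C.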

[3] = target: T2, Human soluble guanylate cyclase enzyme (hsGC) (Homo sapiens (Human), UniProt Q02108+Q02153); experiment: Purified human sGC enzyme activity assay; type: biochemical; settings: for sGC Enzyme (specific activity at 10 μM) / sGC Enzyme (fold increase at 10 μM without SNP): 10 μM compound; for sGC Enzyme (specific activity at 30 μM) / sGC Enzyme (fold increase at 30 μM without SNP): 30 μM compound
T2 sequence (Q02153 whole entry): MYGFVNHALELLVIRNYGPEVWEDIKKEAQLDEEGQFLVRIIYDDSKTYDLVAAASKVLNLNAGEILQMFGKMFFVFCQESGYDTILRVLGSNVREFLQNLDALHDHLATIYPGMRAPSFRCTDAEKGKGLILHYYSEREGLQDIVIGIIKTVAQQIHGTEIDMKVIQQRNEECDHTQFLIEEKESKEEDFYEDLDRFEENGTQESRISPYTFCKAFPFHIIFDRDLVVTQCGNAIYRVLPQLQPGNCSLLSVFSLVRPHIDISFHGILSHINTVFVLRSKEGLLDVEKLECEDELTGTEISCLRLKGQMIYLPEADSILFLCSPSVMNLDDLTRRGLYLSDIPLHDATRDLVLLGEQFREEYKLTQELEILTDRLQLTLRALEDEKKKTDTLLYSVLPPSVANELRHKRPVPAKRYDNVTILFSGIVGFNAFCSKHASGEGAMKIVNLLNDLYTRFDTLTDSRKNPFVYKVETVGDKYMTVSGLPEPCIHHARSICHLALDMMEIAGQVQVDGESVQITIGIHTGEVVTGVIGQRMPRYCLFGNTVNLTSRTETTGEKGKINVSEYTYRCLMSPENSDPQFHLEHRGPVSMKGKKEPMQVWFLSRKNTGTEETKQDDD
T2 sequence (Q02108 whole entry): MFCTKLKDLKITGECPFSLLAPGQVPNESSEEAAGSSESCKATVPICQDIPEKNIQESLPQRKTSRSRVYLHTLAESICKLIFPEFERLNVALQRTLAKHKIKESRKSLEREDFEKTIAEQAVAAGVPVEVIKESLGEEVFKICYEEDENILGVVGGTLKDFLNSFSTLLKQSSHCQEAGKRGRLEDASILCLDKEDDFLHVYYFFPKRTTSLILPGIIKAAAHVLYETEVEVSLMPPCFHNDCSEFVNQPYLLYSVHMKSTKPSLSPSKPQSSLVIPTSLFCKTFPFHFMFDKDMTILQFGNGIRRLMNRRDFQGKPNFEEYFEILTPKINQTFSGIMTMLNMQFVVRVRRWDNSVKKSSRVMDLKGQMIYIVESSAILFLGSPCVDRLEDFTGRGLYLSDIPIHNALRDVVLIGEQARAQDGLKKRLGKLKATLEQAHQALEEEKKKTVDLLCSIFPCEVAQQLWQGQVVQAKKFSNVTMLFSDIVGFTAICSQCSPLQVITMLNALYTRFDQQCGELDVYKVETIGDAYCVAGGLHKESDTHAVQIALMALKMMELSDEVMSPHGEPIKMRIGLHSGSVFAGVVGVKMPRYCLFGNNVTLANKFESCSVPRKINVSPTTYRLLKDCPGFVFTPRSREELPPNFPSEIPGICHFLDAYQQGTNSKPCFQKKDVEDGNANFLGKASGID
Outline: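 Purified human sGC (5 ng) incubated 30 min at 37° C with compound at 10 or 30 μM final in pH 8.0 Tris with 300 μM GTP, 2 mM MgCl2, 2 mM DTT and 1 mM IBMX, then stopped with cold methanol. cGMP quantified against a standard curve. Specific activity (nmol cGMP/mg sGC/min) expressed as fold-change over DMSO control.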

[4] = target: T2, Human soluble guanylate cyclase enzyme (hsGC); experiment: Purified human sGC enzyme synergy assay in the presence of 1 μM sodium nitroprusside (SNP); type: biochemical; settings: with 1 μM SNP; for sGC Enzyme (fold increase at 30 μM with SNP): 30 μM compound; for sGC Enzyme (fold increase at 10 μM with SNP): 10 μM compound
Outline: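 Purified human sGC (5 ng) incubated 30 min at 37 °C with compounds at 10 or 30 μM, 1 μM sodium nitroprusside, 300 μM GTP and 1 mM IBMX in Tris pH 8.0 with MgCl2/DTT. cGMP quantified against a standard curve, and specific activity expressed as fold-change over DMSO control.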

Thoracic aortic rings = Thoracic aortic rings assay (Example 19a; IBMX as 100% inhibition); settings: compound at 10 μM; rat thoracic aortic rings contracted with 100 ng/mL phenylephrine; read-out: Percent Relaxation at 10 μM
Method: Thoracic aortic rings were dissected from anesthetized (isoflurane) male Sprague-Dawley rats weighing 275-299 g. Tissues were immediately transferred to ice-cold Krebs-Henseleit solution, which had been aerated with 95% O2 and 5% CO2 for 30 minutes. Following removal of connective tissue, aortic sections were cut into 4 rings (˜2 mm each) and suspended on 2 L-shaped hooks, with one hook fixed at the bottom of the tissue bath (Schuler Organ Bath, Harvard Apparatus) and the other connected to a force transducer (F30 Force Transducer, Harvard Apparatus). Baths contained Krebs Henseleit solution (10 mL) heated to 37° C. and aerated with 95% O2 and 5% CO2. Rings were brought to an initial tension of 0.3-0.5 g and gradually raised to a resting tension of 1.0 g over 60 minutes. Rings were rinsed with Krebs Henseleit solution (heated to 37° C. and aerated with 95% O2 and 5% CO2) at 15 minute intervals until a stable baseline was obtained. Rings were considered to be stable after a resting tension of 1.0 g was maintained (for approximately 10 minutes) without need for adjustment. Rings were then contracted with 100 ng/mL phenylephrine by adding 100 uL of a 10 μg/mL phenylephrine stock solution. Tissues achieving a stable contraction were then treated in a cumulative, dose dependent manner with test compounds prepared in dimethylsulfoxide (DMSO). In some cases, tissues were rinsed three times over a 5 minute period with Krebs-Heinseleit's solution (heated to 37° C. and aerated with 95% O2 and 5% CO2), allowed to stabilize at baseline, and then used for characterization of other test articles or DMSO effects. All data were collected using the HSE-ACAD software provided by Harvard Apparatus. […] EC50 values were calculated from concentration-response curves generated with GraphPad Prism Software.

T1 sequence (Q02153 whole entry): as the sequence (Q02153 whole entry) above
T1 sequence (Q02108 whole entry): as the sequence (Q02108 whole entry) above

| Compound | HEK WC Assay (fold increase at 10 μM) [1] | HEK WC Assay (fold increase at 30 μM) [1] | Emax at 10 µM [2] [%] | Emax at 30 µM [2] [%] | sGC Enzyme (specific activity at 10 μM) [3] | sGC Enzyme (fold increase at 10 μM without SNP) [3] | sGC Enzyme (specific activity at 30 μM) [3] | sGC Enzyme (fold increase at 30 μM without SNP) [3] | sGC Enzyme (fold increase at 30 μM with SNP) [4] | sGC Enzyme (fold increase at 10 μM with SNP) [4] | inhibition at 10 µM (Thoracic aortic rings) [%] |
| --- | --- | --- | --- | --- | --- | --- | --- | --- | --- | --- | --- |
| N#Cc1cc(-c2ccccn2)nn1Cc1ccccc1F [Compound I-3] | A (A = no increase to <1 fold increase) | D (D = 5 to <10 fold increase) | 20 to 40 | 40 to 60 | D (D = 200 to <500) | B (B = 2 to <5 fold increase) |  | C (C = 5 to <10 fold increase) | C (C = 5 to <10 fold increase) | C (C = 5 to <10 fold increase) | 92 |
| Fc1ccccc1Cn1nc(-c2ccccn2)cc1-c1ccccc1 [Compound I-5] | A (A = no increase to <1 fold increase) | A (A = no increase to <1 fold increase) | 0 to 10 | 10 to 20 | D (D = 200 to <500) | B (B = 2 to <5 fold increase) | D (D = 200 to <500) | B (B = 2 to <5 fold increase) | B (B = 2 to <5 fold increase) | B (B = 2 to <5 fold increase) | 55.6 |
| Fc1ccccc1Cn1nc(-c2ncccn2)cc1-c1ccsc1 [Compound I-4] | A (A = no increase to <1 fold increase) | D (D = 5 to <10 fold increase) | 10 to 20 | 20 to 40 | E (E = 500 to <1000) | B (B = 2 to <5 fold increase) | E (E = 500 to <1000) | C (C = 5 to <10 fold increase) | C (C = 5 to <10 fold increase) | B (B = 2 to <5 fold increase) | 102 |
| COc1cccc(-c2cc(-c3ncccn3)nn2Cc2ccccc2F)n1 [Compound I-6] | B (B = 1 to <2 fold increase) | C (C = 2 to <5 fold increase) | 20 to 40 | 20 to 40 | D (D = 200 to <500) | B (B = 2 to <5 fold increase) | D (D = 200 to <500) | B (B = 2 to <5 fold increase) | D (D = equal or >10 fold increase) | B (B = 2 to <5 fold increase) | 102 |
| Fc1ccccc1Cn1nc(-c2ccccn2)cc1-c1ccccc1F [Compound I-7] |  |  | 0 to 10 | 0 to 10 | D (D = 200 to <500) | B (B = 2 to <5 fold increase) | D (D = 200 to <500) | B (B = 2 to <5 fold increase) | C (C = 5 to <10 fold increase) | B (B = 2 to <5 fold increase) | 60.4 |

More lines, main results first:

| HEK WC Assay (fold increase at 10 μM) [1] | HEK WC Assay (fold increase at 30 μM) [1] | Emax at 10 µM [2] [%] | Emax at 30 µM [2] [%] | sGC Enzyme (specific activity at 10 μM) [3] | sGC Enzyme (fold increase at 10 μM without SNP) [3] | sGC Enzyme (specific activity at 30 μM) [3] | sGC Enzyme (fold increase at 30 μM without SNP) [3] | sGC Enzyme (fold increase at 30 μM with SNP) [4] | sGC Enzyme (fold increase at 10 μM with SNP) [4] | Compound | inhibition at 10 µM (Thoracic aortic rings) [%] |
| --- | --- | --- | --- | --- | --- | --- | --- | --- | --- | --- | --- |
| B (B = 1 to <2 fold increase) | C (C = 2 to <5 fold increase) | 20 to 40 | 40 to 60 | C (C = 100 to <200) | A (A = no increase to <2 fold increase) | D (D = 200 to <500) | C (C = 5 to <10 fold increase) | D (D = equal or >10 fold increase) |  | Fc1ccccc1Cn1nc(-c2ncccn2)cc1-c1nccs1 [Compound I-33] | 110 |
|  |  | 20 to 40 | 20 to 40 | C (C = 100 to <200) | B (B = 2 to <5 fold increase) | D (D = 200 to <500) | C (C = 5 to <10 fold increase) | D (D = equal or >10 fold increase) | D (D = equal or >10 fold increase) | Fc1ccccc1Cn1nc(-c2ccccn2)cc1-c1ccco1 [Compound I-61] | 103 |
|  |  | 0 to 10 | 10 to 20 | D (D = 200 to <500) | B (B = 2 to <5 fold increase) | E (E = 500 to <1000) | C (C = 5 to <10 fold increase) | C (C = 5 to <10 fold increase) | B (B = 2 to <5 fold increase) | Fc1ccccc1Cn1nc(-c2ccccn2)cc1C1CCC1 [Compound I-42] | 72.1 |
|  |  | 0 to 10 | 10 to 20 | C (C = 100 to <200) | A (A = no increase to <2 fold increase) | C (C = 100 to <200) | B (B = 2 to <5 fold increase) | C (C = 5 to <10 fold increase) | B (B = 2 to <5 fold increase) | Nc1ccnc(-c2cc(-c3ccccn3)n(Cc3ccccc3F)n2)n1 [Compound I-31] | 93.2 |
|  |  | 20 to 40 | 20 to 40 | C (C = 100 to <200) | A (A = no increase to <2 fold increase) | C (C = 100 to <200) | B (B = 2 to <5 fold increase) | D (D = equal or >10 fold increase) | C (C = 5 to <10 fold increase) | Fc1ccccc1Cn1nc(-c2ccccn2)cc1-c1nnco1 [Compound I-45] | 94.9 |
